Patent publication US5985603A, “P2x receptor DNA and protein sequence” (Glaxo Group Limited, priority 1994, dated 1999)
Where a name gives a salt, the structure may show the parent alone.

Columns and labels:
hP2X = target: T1, hP2X (Homo sapiens, UniProt P51575); assay: inward currents evoked by purinoceptor agonists in Xenopus oocytes expressing hP2X; assay type: cell-based; conditions: for full agonist activity: concentration-response curves; for agonist profile (rank order): oocytes expressing hP2X; for relative potency: relative to ATP, from EEC50
T1 construct: expressed in transfected cells; host or cells: Xenopus oocytes injected with in vitro transcribed RNA
T1 sequence (P51575 1-399): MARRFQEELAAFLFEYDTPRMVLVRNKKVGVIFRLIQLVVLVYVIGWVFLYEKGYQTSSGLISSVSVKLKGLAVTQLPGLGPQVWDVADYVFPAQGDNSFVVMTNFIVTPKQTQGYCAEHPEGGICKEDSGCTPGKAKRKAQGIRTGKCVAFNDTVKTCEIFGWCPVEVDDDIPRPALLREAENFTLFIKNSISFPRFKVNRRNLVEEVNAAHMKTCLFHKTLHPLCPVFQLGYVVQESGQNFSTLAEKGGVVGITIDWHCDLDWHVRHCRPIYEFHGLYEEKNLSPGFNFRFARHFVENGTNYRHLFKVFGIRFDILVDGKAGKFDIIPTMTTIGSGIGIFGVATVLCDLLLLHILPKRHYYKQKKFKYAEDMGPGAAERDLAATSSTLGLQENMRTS
Method: Human urinary bladder P2X cDNA, subcloned into the pBKCMV expression vector, was linearized with Notl, and transcribed in vitro with T3 polymerase in the presence of cap analogue m7G(5')ppp(5')G. Defolliculated Xenopus oocytes (Bertrand et al, Electrophysiology of neuronal nicotinic acetylcholine receptors expressed in Xenopus oocytes following nuclear injection of genes or cDNAs Meth Neurosci 4: 174-193 (1991)) were injected with 50 ng of human P2X in vitro transcribed RNA, and incubated at 18° C. for 2-6 days in the ND96 solution (mM): NaCl96, KCl2, MgCl2 1, CaCl2 2, sodium pyruvate 5, HEPES 5, ph 7.6-7.5, penicillin (10 U/ml), and streptomycin (10 μg/ml).
Oocytes were placed in a 1 ml chamber and superfused at 2-3 ml/min with ND96 solution with 0.1 mM BaCl2 replacing the 2 mM CaCl2 to prevent activation of endogenous calcium-activated chloride currents (Barish, A transient calcium-dependent chloride current in the immature Xenopus oocytes J Physiol 342: 309-325 (1983)). Currents were measured using a two-electrode voltage-clamp amplifier (Geneclamp Axon Instruments)at a holding potential of -60 mV. Microelectrodes were filled with 3 M KCl (0.5-2 M.OMEGA.). Data were collected using PClamp software (Axon Instruments). […] Antagonists were applied both in the superfusate and together with ATP in the U-tube solution.
Concentration response curves for purinoceptor agonists were fitted with a Hill slope of 1. […] Data are presented throughout as mean ± SEM for a given number of oocytes.

P2X-purinoceptor = conditions: cited from earlier work
[1] = target: T2, rat vas/human bladder P2X cDNA clone (Homo sapiens, UniProt P51575); assay: functional properties of cloned P2X receptors (electrical recordings): bladder; assay type: cell-based; conditions: Table A; for Ca++ block, bladder: extracellular calcium 30 mM in text
T2 construct: expressed in transfected cells; host or cells: HEK293 cells (oocytes are also named for the functional characterisation)
T2 sequence (P51575 1-399): T1 sequence (P51575 1-399)
Method: DNA concentration used was 1 mg/2 ml medium placed into a 35 mm petri dish containing four 11 mm diameter coverslips on which HEK cells were placed at 10,000 cells per coverslip. […] Currents were recorded from HEK 293 cells using whole-cell recording methods and the AXOPATCH™ 200 amplifier (Axon Instruments); patch pipettes (5 M.OMEGA.) contained (mM) Cs or K aspartate 140, NaCl 5, EGTA 11, HEPES 5. […] All recordings performed at room temperature. Data acquisition and analysis were performed using pCLAMP™ and AXOGRAPH™ software (Axon Instruments). […] ATP was applied by U-tube typically for 1 s; data was sampled at 5 kHz in 2 s segments beginning 300 ms prior to onset of agonist (ATP) application and filtered at 1 kHz.

[2] = target: T3, rat superior cervical ganglion P2X receptor (clone 3) (Rattus norvegicus, UniProt P51577); assay: functional properties of cloned P2X receptors (electrical recordings): clone 3; assay type: cell-based; conditions: for Ca++ block, clone 3: extracellular calcium 30 mM in text
T3 construct: The insert appeared to be a full length cDNA; expressed in transfected cells; host or cells: HEK293 cells transfected with pcDNA3 construct p464 (also oocytes injected with in vitro transcribed RNA)
T3 sequence (P51577 1-388): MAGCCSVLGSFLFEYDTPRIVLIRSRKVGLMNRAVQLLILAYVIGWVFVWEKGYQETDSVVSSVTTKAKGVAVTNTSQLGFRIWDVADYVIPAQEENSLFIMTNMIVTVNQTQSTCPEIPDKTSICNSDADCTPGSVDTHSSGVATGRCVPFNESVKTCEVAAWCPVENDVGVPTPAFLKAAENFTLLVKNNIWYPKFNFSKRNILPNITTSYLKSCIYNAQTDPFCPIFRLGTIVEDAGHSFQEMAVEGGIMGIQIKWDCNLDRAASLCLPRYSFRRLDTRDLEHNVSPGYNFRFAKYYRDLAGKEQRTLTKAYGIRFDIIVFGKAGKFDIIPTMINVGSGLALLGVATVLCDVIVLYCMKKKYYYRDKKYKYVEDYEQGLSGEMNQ
Method: (§1) HEK 293 cells were transfected by the lipofectin method (Felgner et al., Proc. Nat'l. Acad. Sci. USA 84 7413-7417 (1987)) with P2X -plasmid. DNA concentration used was 1 mg/2 ml medium placed into a 35 mm petri dish containing four 11 mm diameter coverslips on which HEK cells were placed at 10,000 cells per coverslip. […] Currents were recorded from HEK 293 cells using whole-cell recording methods and the AXOPATCH™ 200 amplifier (Axon Instruments); patch pipettes (5 M.OMEGA.) contained (mM) Cs or K aspartate 140, NaCl 5, EGTA 11, HEPES 5. The external solution was (mM) NaCl 150, KCl2, CaCl2 2, MgCl2 1, HEPES 5 and glucose 11; the pH and osmolarity of both solutions were maintained at 7.3 and 305 mosmol/l respectively. All recordings performed at room temperature. Data acquisition and analysis were performed using pCLAMP™ and AXOGRAPH™ software (Axon Instruments). […] The pH and osmolarity of the solutions were 7.4 and 295 mosmol/l respectively. For single channel measurements, a […]™ 500 amplifier and outside-out recording methods were used (Adelman et al., Neuron 9 209-216 (1992)). Wax-coated patch pipettes (5-10 M.OMEGA.) contained (mM) K-gluconate 115, HEPES 5, BAPTA 5 and MgCl2 0.5, external solution was 96 mM NaCl, 2 mM KCl, 1.8 mM CaCl2, 1 mM MgCl2, 5 mM Hepes pH 7.6, and 5 mM sodium pyruvate.
(§2) The functional characterisation of the clone illustrated in FIG. 2 (referred to herein as clone 3) was carried out by electrical recordings from transfected HEK293 cells and from oocytes injected with the in vitro transcribed RNA, as described in Example 4 for the rat vas deferens P2X receptor. Table A summarizes the main properties of clone 3 as compared to those of rat vas/human bladder cDNA clone, and the PC12 cDNA clone (provided by David Julius and Tony Brake of the University of California at San Francisco).

PC12 P2X receptor = target: T4, PC12 P2X receptor (Rattus norvegicus, UniProt P49653); assay: functional properties of cloned P2X receptors (electrical recordings): PC12; assay type: cell-based; conditions: Table A; for Ca++ block, PC12: extracellular calcium 30 mM in text
T4 construct: host or cells: HEK293 cells (oocytes are also named for the functional characterisation of clone 3)
T4 sequence (P49653 1-472): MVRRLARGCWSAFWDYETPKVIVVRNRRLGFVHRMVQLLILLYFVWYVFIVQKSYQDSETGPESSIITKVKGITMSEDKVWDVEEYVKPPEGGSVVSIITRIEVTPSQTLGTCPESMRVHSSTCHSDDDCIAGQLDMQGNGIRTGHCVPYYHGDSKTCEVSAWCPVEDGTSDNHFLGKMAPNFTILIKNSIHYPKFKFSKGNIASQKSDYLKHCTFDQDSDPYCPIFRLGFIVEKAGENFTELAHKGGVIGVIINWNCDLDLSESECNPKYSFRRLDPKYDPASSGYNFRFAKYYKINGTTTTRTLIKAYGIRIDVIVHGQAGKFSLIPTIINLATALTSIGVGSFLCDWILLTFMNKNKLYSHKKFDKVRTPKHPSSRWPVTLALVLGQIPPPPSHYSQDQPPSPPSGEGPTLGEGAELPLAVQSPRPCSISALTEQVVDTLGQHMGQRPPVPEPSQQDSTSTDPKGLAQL
Method: as §1, §2

hP2X mRNA = assay: induction of hP2X mRNA in HL60 cells by Northern blot; assay type: cell-based, human; conditions: 1.8 and 2.6 kb bands
Method: HL60 cells (human promyelocytes ATCC CCL240) were passaged twice weekly in RPMI-1640 supplemented with 25 mnM HEPES, 2 mM Glutamax II, and 10% heat-inactivated fetal calf serum (GIBCO BRL) . For each experiment 33×10^6 cells were resuspended at 2.5×10^5 cells/ml in medium containing either phorbol mystate acetate (100 nM), 1. 1% DMSO, or dibutyryl cAMP (200 uM) (SIGMA) for the indicated times.
PolyA^+ RNAs were obtained from Clontech Laboratories Inc. (Palo Alto) except for the urinary bladder and HL60 mRNA which were prepared as described (Valera et al (1994)--supra) . Samples were quantified by measuring the O.D. at 260 nm, and by staining the membrane with methylene blue. The RNA were fractionated on a 1% agarose--6% formaldehyde gel and electroblotted to a non-charged nylon membrane (BDH). Prehybridisation at 68° C. was performed for 6 hours in hybridisation buffer (50% formamide, 5× SSC, 2% blocking buffer (Boehringer Mannheim), 0.1%6 laurolylsarcosine, 0.02% SDS). Hybridisation was overnight at 68° C. in fresh hybridisation buffer with a digoxigenin-UTP labelled riboprobe (100 ng/ml) corresponding to the entire hP2 × sequence. The membrane was washed at 68° C.; twice in 2× SSC+0.1% SDS, and twice in 0.1× SSC+0.1% SDS. Chemiluminescent detection of hybridisation was carried at room temperature as follows: the membrane was rinsed 5 min in buffer B1 (0.1 M maleic acid, 0.15 M NaCl, pH 7.5), saturated for 1 hour in 1% blocking buffer (B2), incubated 30 min with anti-digoxigenin-antibody alkaline phosphatase conjugated (750 u/ml, Boehringer Mannheim) diluted 1:15000 in B2, washed in B1+0.30% tween 20 (1× 5 min, 1× 15 min, 1× 1 h), equilibrated for 5 min in buffer B3 (0.1 M Tris HCl pH 9.5, 0.1 M NaCl, 50 mM MgCl2), incubated 45-60 sec in lumigen PPD (Boehringer Mannheim) diluted 1:100 in B3. The humid membrane was sealed in a plastic bag, incubated 15 min at 37° C., and exposed 15 to 20 min to Hyperfilm-ECL (Amersham). […]

[3] = listed as Extracellular calcium

SMILES	EC50 (hP2X) [µM]	full agonist activity (hP2X)	agonist profile (rank order) (hP2X)	relative potency (hP2X)	agonist potency order in whole tissue studies (P2X-purinoceptor)	induction of P2X mRNA in HL60 cells (hP2X mRNA)	other results
CSc1nc(N)c2ncn([C@@H]3O[C@H](COP(=O)(O)OP(=O)(O)OP(=O)(O)O)[C@@H](O)[C@H]3O)c2n1 [2MeSATP, 2-MethylthioATP tetra sodium salt]	0.6 ± 0.1	full agonists	2MeSATP≥ATP>α,β,-meATP	1.36	α,β,-meATP >>2MeSATP≥ATP		comparison of concentration-effect curves (hP2X; ATP, 2MeSATP and 2-chloro-ATP): superimposable
[Ca+2] [Ca^++, calcium]							Ca++ block, bladder [1]: none; Ca++ block, bladder [1, 3]: does not block current; Ca++ block, clone 3 ([2]; Table A): intermediate; Ca++ block, clone 3 ([2]; Table A, listed as Extracellular calcium): intermediate in sensitivity; Ca++ block, PC12 (PC12 P2X receptor): very strong; Ca++ block, PC12 (PC12 P2X receptor; [3]): inhibits the inward current
C[S+](C)[O-] [DMSO]						produced an increase in P2X mRNA	
CCCC(=O)Nc1ncnc2c1ncn2[C@@H]1O[C@@H]2COP(=O)(O)O[C@H]2[C@H]1OC(=O)CCC [dibutryl cAMP, dibutyryl cAMP]						produced an increase in P2X mRNA	
CCCCCCCCCCCCCC(=O)O[C@@H]1[C@@H](C)[C@@]2(O)[C@@H](C=C(CO)C[C@]3(O)C(=O)C(C)=C[C@@H]23)[C@@H]2C(C)(C)[C@]12OC(C)=O [phorbol diesters, phorbol mystate acetate]						produced an increase in P2X mRNA	
Nc1ncnc2c1ncn2[C@@H]1O[C@H](COP(=O)(O)CP(=O)(O)OP(=O)(O)O)[C@@H](O)[C@H]1O [α,β-meATP, α,β-methylene ATP lithium salt]	3.6 ± 1.6	full agonists	2MeSATP≥ATP>α,β,-meATP	0.23	α,β,-meATP >>2MeSATP≥ATP		EC50 ([1]; parameter (EC50) not given, read-out: agonist profile, bladder): 3 µM; EC50 ([2]; Table A, parameter (EC50) not given, read-out: agonist profile, clone 3): > 100 µM; agonist action ([2]; clone 3 (FIG. 14)): little or no agonist action; EC50 (PC12 P2X receptor; parameter (EC50) not given, read-out: agonist profile, PC12): > 100 µM
